We go through 25 compounds from patent US20250145585A1, “HETEROCYCLIC INHIBITORS OF IGF-1R FOR TREATMENT OF DISEASE” (HORIZON THERAPEUTICS IRELAND DAC, priority 2023, published 2025).

The target in assay [1] is T1, IGF-1R (Homo sapiens, UniProt P08069).
T1 construct: expressed in transfected cells
Nature of the assay: Example B-2: IGF-1R Assay (PathHunter cell lines, EC80 agonist challenge, chemiluminescent detection). The settings on record: PathHunter cells, compound 60 minutes at 37° C., EC80 agonist 3 hours; read-out: IC50, Biological Activity against IGF-1R (Table B2). The assay is classed as cell-based. Summed up: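 PathHunter cells were pre-incubated with compound for 60 min at 37° C (1% vehicle), then challenged with EC80 agonist for 3 h at room temperature. Chemiluminescent detection after 1 h gave % inhibition relative to EC80 and vehicle controls, from which IC50 was derived.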

Assay [2] deals with T1, IGF-1R. Nature of the assay: Example B-1: IGF-1R Assay (PC3 cells stimulated with IGF1, AlphaLISA on cell lysates). In kind it is cell-based. The settings on record: compound two hours, IGF1 200 ng/mL for 30 min, read-out: IC50, Biological Activity against IGF-1R (Table B1). The procedure, abridged: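 PC3 cells serum-starved 2 h, treated 2 h with 3-fold serially diluted compound, then stimulated 30 min with IGF1 (200 ng/mL final). Lysates analysed by AlphaLISA; % inhibition calculated relative to vehicle and EC80 controls, IC50 derived.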
(Alpha assays give light when donor and acceptor beads are brought close together.)

As usually defined, the IC50 is the concentration at which inhibition is half-maximal.

T1 sequence (P08069 31-1367): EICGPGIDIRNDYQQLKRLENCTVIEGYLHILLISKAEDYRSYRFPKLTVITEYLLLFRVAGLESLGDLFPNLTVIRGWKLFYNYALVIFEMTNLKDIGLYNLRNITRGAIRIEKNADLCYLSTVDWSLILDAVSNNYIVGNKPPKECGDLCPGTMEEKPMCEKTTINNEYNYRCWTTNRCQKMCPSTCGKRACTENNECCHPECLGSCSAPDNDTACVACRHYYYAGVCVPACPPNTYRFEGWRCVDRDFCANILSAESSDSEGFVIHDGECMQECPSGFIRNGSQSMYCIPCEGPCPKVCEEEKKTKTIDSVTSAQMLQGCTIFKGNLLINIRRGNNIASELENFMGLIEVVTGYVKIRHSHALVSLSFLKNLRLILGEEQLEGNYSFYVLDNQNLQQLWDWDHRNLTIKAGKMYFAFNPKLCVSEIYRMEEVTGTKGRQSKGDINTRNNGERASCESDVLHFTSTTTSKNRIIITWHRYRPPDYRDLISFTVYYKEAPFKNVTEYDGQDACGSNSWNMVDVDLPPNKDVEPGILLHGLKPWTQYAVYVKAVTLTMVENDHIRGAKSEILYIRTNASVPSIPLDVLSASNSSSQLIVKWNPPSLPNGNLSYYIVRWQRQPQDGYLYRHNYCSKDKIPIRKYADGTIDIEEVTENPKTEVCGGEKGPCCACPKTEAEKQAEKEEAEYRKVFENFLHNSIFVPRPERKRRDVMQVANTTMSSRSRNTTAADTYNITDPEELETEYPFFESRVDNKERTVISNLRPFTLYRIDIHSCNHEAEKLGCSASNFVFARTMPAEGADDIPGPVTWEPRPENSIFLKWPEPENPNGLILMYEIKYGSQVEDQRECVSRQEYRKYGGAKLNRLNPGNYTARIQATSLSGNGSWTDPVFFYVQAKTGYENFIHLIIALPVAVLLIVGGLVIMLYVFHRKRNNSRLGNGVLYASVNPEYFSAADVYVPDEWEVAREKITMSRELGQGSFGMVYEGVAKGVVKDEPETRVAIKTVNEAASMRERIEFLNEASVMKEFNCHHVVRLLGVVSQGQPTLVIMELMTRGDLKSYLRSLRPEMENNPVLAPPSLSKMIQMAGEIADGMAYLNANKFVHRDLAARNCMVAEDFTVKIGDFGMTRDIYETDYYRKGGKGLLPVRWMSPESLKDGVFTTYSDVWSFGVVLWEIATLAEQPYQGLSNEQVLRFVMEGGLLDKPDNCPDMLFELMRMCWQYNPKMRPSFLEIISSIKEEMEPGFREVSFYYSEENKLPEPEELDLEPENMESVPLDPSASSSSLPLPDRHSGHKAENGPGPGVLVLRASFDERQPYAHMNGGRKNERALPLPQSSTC

Consider `CC(C)Nc1cc(CN2C(=O)N(c3ccc4c(c3)N(C)CC4(C)C)C(=O)C2(C)C)ccn1` [Compound 188, 1-((2-(isopropylamino)pyridin-4-yl)methyl)-5,5-dimethyl-3-(1,3,3-trimethylindolin-6-yl)imidazolidine-2,4-dione], for which the concentration for half-maximal inhibition (IC50) at IGF-1R [1] and at IGF-1R [2] was no more than 500 nM each time.
For `COC1(c2ccc(N3C(=O)N(Cc4ccnc(NC(C)C)c4)C(C)(C)C3=O)cc2)CC1` [Compound 104, 1-((2-(isopropylamino)pyridin-4-yl)methyl)-3-(4-(1-methoxycyclopropyl)phenyl)-5,5-dimethylimidazolidine-2,4-dione], the figures for the 50% inhibitory concentration (IC50) on IGF-1R [1] and at IGF-1R [2] were 500 to 2000 nM and no more than 500 nM, respectively.
Turning to `CC1(C)C(=O)N(c2ccc(SC(F)(F)F)cc2)C(=O)N1Cc1ccnc(N)c1Br` [Compound 388, 1-((2-amino-3-bromopyridin-4-yl)methyl)-5,5-dimethyl-3-(4-((trifluoromethyl)thio)phenyl)imidazolidine-2,4-dione], the half-inhibitory concentration (IC50) on IGF-1R [1] and at IGF-1R [2] was no more than 500 nM throughout.
On to `CC1(C)C(=O)N(c2ccc(SC(F)(F)F)cc2)C(=O)N1Cc1ccnc2c1CCN2` [Compound 16, 1-((2,3-dihydro-1H-pyrrolo[2,3-b]pyridin-4-yl)methyl)-5,5-dimethyl-3-(4-((trifluoromethyl)thio)phenyl)imidazolidine-2,4-dione], for which the IC50 on IGF-1R [1] and on IGF-1R [2] was no more than 500 nM each time.
Take `CC(C)(C)c1ccc(N2C(=O)N(Cc3ccnc(NC4CCCCC4)c3)C(C)(C)C2=O)cc1` [Compound 264, 3-(4-(tert-butyl)phenyl)-1-((2-(cyclohexylamino)pyridin-4-yl)methyl)-5,5-dimethylimidazolidine-2,4-dione]: the results for the IC50 at IGF-1R [1] and on IGF-1R [2] were 500 to 2000 nM and no more than 500 nM, respectively.
Turning to `CC(C)Nc1cc(CN2C(=O)N(c3ccc(C4(C)CC4(F)F)cc3)C(=O)C2(C)C)ccn1` (centres unmarked) [Compound 124, 3-(4-(2,2-difluoro-1-methylcyclopropyl)phenyl)-1-((2-(isopropylamino)pyridin-4-yl)methyl)-5,5-dimethylimidazolidine-2,4-dione], the IC50 on IGF-1R [1] and on IGF-1R [2] was no more than 500 nM in each case.
Regarding `CC1(C)C(=O)N(c2ccc(S(=O)(=O)C(F)(F)F)cc2)C(=O)N1Cc1ccnc2[nH]ccc12` [Compound 22, 1-((1H-pyrrolo[2,3-b]pyridin-4-yl)methyl)-5,5-dimethyl-3-(4-((trifluoromethyl)sulfonyl)phenyl) imidazolidine-2,4-dione], the IC50 on IGF-1R [1] and on IGF-1R [2] was no more than 500 nM each time.
`CC1(C)C(=O)N(c2ccc(S(=O)(=O)C(F)(F)F)cc2)C(=O)N1Cc1ccnc(N[C@H]2[C@@H]3COC[C@@H]32)c1` [Compound 319, 1-((2-(((1R,5S,6r)-3-oxabicyclo[3.1.0]hexan-6-yl)amino)pyridin-4-yl)methyl)-5,5-dimethyl-3-(4-((trifluoromethyl)sulfonyl)phenyl) imidazolidine-2,4-dione]: the IC50 at IGF-1R [1] and on IGF-1R [2] was no more than 500 nM each time.
`CC1(C)C(=O)N(c2ccc(S(=O)(=O)C(F)(F)F)cc2)C(=O)N1Cc1ccnc(NCC(F)F)c1` [Compound 317, 1-((2-((2,2-difluoroethyl)amino)pyridin-4-yl)methyl)-5,5-dimethyl-3-(4-((trifluoromethyl)sulfonyl)phenyl) imidazolidine-2,4-dione]: the 50% inhibitory concentration (IC50) at IGF-1R [1] and at IGF-1R [2] was no more than 500 nM in each case.
For `CC1(C)C(=O)N(c2ccc(SC(F)(F)F)cc2)C(=O)N1Cc1ccnc(N)c1P(C)(C)=O` [Compound 389, 1-((2-amino-3-(dimethylphosphoryl)pyridin-4-yl)methyl)-5,5-dimethyl-3-(4-((trifluoromethyl)thio)phenyl) imidazolidine-2,4-dione], the IC50 on IGF-1R [1] and at IGF-1R [2] was 500 to 2000 nM throughout.
Turning to `CC(C)Nc1cc(CN2C(=O)N(c3ccc4c(c3)C(=O)N(C)C4(C)C)C(=O)C2(C)C)ccn1` [Compound 186, 1-((2-(isopropylamino)pyridin-4-yl)methyl)-5,5-dimethyl-3-(1,1,2-trimethyl-3-oxoisoindolin-5-yl)imidazolidine-2,4-dione], the 50% inhibitory concentration (IC50) on IGF-1R [1] and at IGF-1R [2] was 2000 to 10000 nM each time.
As for `CC(C)Nc1cc(CN2C(=O)N(c3ccc(C4(C#N)CCC4)cc3)C(=O)C2(C)C)ccn1` [Compound 107, 1-(4-(3-((2-(isopropylamino)pyridin-4-yl)methyl)-4,4-dimethyl-2,5-dioxoimidazolidin-1-yl)phenyl)cyclobutane-1-carbonitrile], the IC50 at IGF-1R [1] and on IGF-1R [2] was no more than 500 nM in each case.
For the compound `CC(C)Nc1cc(CN2C(=O)N(c3ccc4c(c3)N(C)C(=O)C4(C)C)C(=O)C2(C)C)ccn1` [Compound 111, 1-((2-(isopropylamino)pyridin-4-yl)methyl)-5,5-dimethyl-3-(1,3,3-trimethyl-2-oxoindolin-6-yl)imidazolidine-2,4-dione], the IC50 on IGF-1R [1] and at IGF-1R [2] was 2000 to 10000 nM in each case.
In the case of `CC(C)Nc1cc(CN2C(=O)N(c3ccc(SC(F)(F)F)cc3)C(=O)[C@@H]2CO)ccn1` [Compound 298, (S)-5-(hydroxymethyl)-1-((2-(isopropylamino)pyridin-4-yl)methyl)-3-(4-((trifluoromethyl)thio)phenyl)imidazolidine-2,4-dione], the IC50 on IGF-1R [1] and on IGF-1R [2] was greater than 10000 nM throughout.
Consider `CC1(C)C(=O)N(c2ccc(C3(C(F)(F)F)CC3)cc2)C(=O)N1Cc1ccnc(N[C@@H]2CCOC2)c1` [Compound 118, (R)-5,5-dimethyl-1-((2-((tetrahydrofuran-3-yl)amino)pyridin-4-yl)methyl)-3-(4-(1-(trifluoromethyl)cyclopropyl)phenyl) imidazolidine-2,4-dione], for which the IC50 on IGF-1R [1] and on IGF-1R [2] was no more than 500 nM each time.
As for `CC1(C)C(=O)N(c2ccc(C3(C(F)(F)F)CC3)cc2)C(=O)N1Cc1ccnc2c1CC(=O)N2` [Compound 13, 5,5-dimethyl-1-((2-oxo-2,3-dihydro-1H-pyrrolo[2,3-b]pyridin-4-yl)methyl)-3-(4-(1-(trifluoromethyl)cyclopropyl)phenyl)imidazolidine-2,4-dione], the IC50 on IGF-1R [1] and on IGF-1R [2] was no more than 500 nM throughout.
As for `CC(C)(O)c1ccc(N2C(=O)N(Cc3ccnc(N)c3)C(C)(C)C2=O)cc1` [Compound 88, 1-((2-aminopyridin-4-yl)methyl)-3-(4-(2-hydroxypropan-2-yl)phenyl)-5,5-dimethylimidazolidine-2,4-dione], the IC50 on IGF-1R [1] was 2000 to 10000 nM; at IGF-1R [2] it was 500 to 2000 nM.
On to `Cc1c(CN2C(=O)N(c3ccc(C4(C(F)(F)F)CC4)cc3)C(=O)C2(C)C)ccnc1NC(C)C` [Compound 122, 1-((2-(isopropylamino)-3-methylpyridin-4-yl)methyl)-5,5-dimethyl-3-(4-(1-(trifluoromethyl)cyclopropyl)phenyl)imidazolidine-2,4-dione], for which the values for the IC50 at IGF-1R [1] and at IGF-1R [2] were no more than 500 nM and greater than 10000 nM, respectively.
Take `CC(C)Nc1cc(CN2C(=O)N(c3ccc(SC(F)(F)F)cc3)C(=O)C2(C)CO)ccn1` (centres unmarked) [Compound 299, 5-(hydroxymethyl)-1-((2-(isopropylamino)pyridin-4-yl)methyl)-5-methyl-3-(4-((trifluoromethyl)thio)phenyl)imidazolidine-2,4-dione]: the half-inhibitory concentration (IC50) on IGF-1R [1] and at IGF-1R [2] was 2000 to 10000 nM each time.
Consider `CC1(C)C(=O)N(c2ccc(C3(C(F)(F)F)CCC3)cc2)C(=O)N1Cc1ccnc(NC2CCOCC2)c1` [Compound 130, 5,5-dimethyl-1-((2-((tetrahydro-2H-pyran-4-yl)amino)pyridin-4-yl)methyl)-3-(4-(1-(trifluoromethyl)cyclobutyl)phenyl) imidazolidine-2,4-dione], for which the IC50 at IGF-1R [1] and on IGF-1R [2] was no more than 500 nM in each case.
With `CC1COCCC1Nc1cc(CN2C(=O)N(c3ccc(C4(C(F)(F)F)CC4)cc3)C(=O)C2(C)C)ccn1` (centres unmarked) [Compound 128, 5,5-dimethyl-1-((2-((3-methyltetrahydro-2H-pyran-4-yl)amino)pyridin-4-yl)methyl)-3-(4-(1-(trifluoromethyl)cyclopropyl)phenyl) imidazolidine-2,4-dione], the half-maximal inhibitory concentration (IC50) at IGF-1R [1] and at IGF-1R [2] was no more than 500 nM in each case.
For the compound `CC(C)Nc1cc(CN2C(=O)N(c3ccc(C4(C#N)CCCC4)cc3)C(=O)C2(C)C)ccn1` [Compound 131, 1-(4-(3-((2-(isopropylamino)pyridin-4-yl)methyl)-4,4-dimethyl-2,5-dioxoimidazolidin-1-yl)phenyl)cyclopentane-1-carbonitrile], the IC50 at IGF-1R [1] and on IGF-1R [2] was no more than 500 nM in each case.
For `CC1(C)C(=O)N(c2ccc(SC(F)(F)F)cc2)C(=O)N1Cc1ccnc(NC(=O)Nc2cccc(F)c2)c1` [Compound 373, 1-(4-((5,5-dimethyl-2,4-dioxo-3-(4-((trifluoromethyl)thio)phenyl)imidazolidin-1-yl)methyl)pyridin-2-yl)-3-(3-fluorophenyl)urea], the IC50 on IGF-1R [1] and on IGF-1R [2] was no more than 500 nM in each case.
Consider `CC(c1ccnc(N)c1)N1C(=O)N(c2ccc(C3(C(F)(F)F)CC3)cc2)C(=O)C1(C)C` (centres unmarked) [Compound 135, 1-(1-(2-aminopyridin-4-yl)ethyl)-5,5-dimethyl-3-(4-(1-(trifluoromethyl)cyclopropyl)phenyl) imidazolidine-2,4-dione], for which the IC50 at IGF-1R [1] and at IGF-1R [2] was no more than 500 nM each time.
In the case of `CC1(C)C(=O)N(c2ccc(SC(F)(F)F)cc2)C(=O)N1Cc1ccnc2[nH]ccc12` [Compound 1, 1-((1H-pyrrolo[2,3-b]pyridin-4-yl)methyl)-5,5-dimethyl-3-(4-((trifluoromethyl)thio)phenyl)imidazolidine-2,4-dione], the concentration for half-maximal inhibition (IC50) on IGF-1R [1] and at IGF-1R [2] was no more than 500 nM in each case.
